# Measured values reported in patent publication US20260108527A1, “POLO LIKE KINASE 4 INHIBITORS” (ORIC Pharmaceuticals, Inc., priority 2022, published 2026).
# Legend:
# CHP134 = CHP134 CellTiter-Glo (CTG) Assay; format: cell-based; settings: Homo sapiens, CHP-134, 120 h; viable cells by CellTiter-Glo after 5 days
# Protocol: […] cells (DSMZ-German Collection of Microorganisms and Cell Cultures, Braunschweig Germany) were cultured in RPMI 1640 supplemented with 10% fetal bovine serum, penicillin (100 U/ml), 1% L-Glutamine and streptomycin ([…]). Cells were seeded (200 cells/well) in 384-well plates for 16 hours. On day two, nine serial 1:3 compound dilutions were made in DMSO in a 96-well plate. The compounds were then further diluted into growth media using a BRAVO robot (Agilent, Santa Clara, CA). The diluted compounds were then added to quadruplicate wells in the 384-well cell plate and incubated at 37° C. and 5% CO2. After 5 days, relative numbers of viable cells were measured by luminescence using CellTiter-Glo® (Promega) according to the manufacturer's instructions and read on a SPARK Multimode Microplate Reader (Tecan, Mannedorf Switzerland). The IC50 calculations for the values reported in Table 2 were carried out using Prism 6.0 software (GraphPad, San Diego).
# [1] = biological target: T1, human recombinant Aurora B (Homo sapiens, UniProt Q96GD4); assay: Aurora B Kinase Biochemical Assay (ADP-Glo); settings: selectivity ratio; Aurora B 10 nM, 114 μM ATP
# T1 construct: purchased ThermoFisher PR9210B
# T1 sequence (Q96GD4 whole entry): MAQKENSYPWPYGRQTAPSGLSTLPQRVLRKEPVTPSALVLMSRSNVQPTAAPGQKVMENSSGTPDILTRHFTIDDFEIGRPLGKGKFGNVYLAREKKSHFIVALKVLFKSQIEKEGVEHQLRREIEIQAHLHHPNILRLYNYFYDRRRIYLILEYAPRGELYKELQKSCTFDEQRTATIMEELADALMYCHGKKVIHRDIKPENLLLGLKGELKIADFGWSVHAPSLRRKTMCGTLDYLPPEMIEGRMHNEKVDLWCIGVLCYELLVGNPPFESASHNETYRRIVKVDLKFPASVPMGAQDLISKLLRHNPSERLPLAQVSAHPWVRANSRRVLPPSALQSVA
# Protocol: Activity of human recombinant Aurora B (ThermoFisher, cat #PR9210B) was measured by quantification of adenosine diphosphate (ADP) using the ADP-Glo Kinase Assay Kit (Promega, cat #V9102). Test compounds were solubilized in dimethyl sulfoxide (DMSO) and dispensed into 384-well white polystyrene nonbinding plates (Greiner, cat #781094) using the Echo acoustic dispenser (Labcyte Inc.) in a 11-point 3-fold titration in duplicates. 5 μL of 20 nM Aurora B in assay buffer (50 mM HEPES, pH 7.5, 0.01% Brij-35, 0.01% BSA, 10 mM MgCl2, 1 mM EGTA, 1 mM DTT) was added to the plates. Test compounds and Aurora B were incubated for 15 minutes at room temperature (RT). Then 5 μL of a 228 μM adenosine triphosphate (ATP) (Promega, cat #V915B) and 9.3 μM Myelin Basic Protein (MBP) (SignalChem, cat #M42-51N) substrate solution in assay buffer was added and the reaction mixture was incubated for 2 hours at RT. The final concentration of Aurora b, ATP and MBP in the reactions were 10 nM, 114 μM and 4.7 μM, respectively. Reactions were stopped and the remaining ATP depleted by adding 10 μL of ADP-Glo reagent (Promega, cat #V912B) and incubating for 40 minutes at RT. The simultaneous conversion of the remaining ADP to ATP and measurement of the newly synthesized ATP was achieved by addition of 20 μL Kinase Detection reagent (Promega, cat #V9141B), incubation for 30 min at RT, and luminescence detection using the EnVision plate reader (PerkinElmer). Reactions lacking Aurora B were used as […]. Reactions containing DMSO alone were used as […]. The IC50 values reported in Table 2 were determined using four parameter non-linear regression curve fit.
Compound,IC50 (CHP134),[Aurora B IC50 (nM)]/[PLK4 IC50 (nM)] [1]
"CCOc1ccc(-c2nccs2)nc1Nc1n[nH]c2cc([C@@H]3C[C@@]34C(=O)Nc3ccc(OC)cc34)ccc12 [Example 28, (1R,2S)-2-(3-{[3-ethoxy-6-(1,3-thiazol-2-yl)pyridin-2-yl]amino}-1H-indazol-6-yl)-5′-methoxyspiro[cyclopropane-1,3′-indol]-2′(1′H)-one]",16.7 nM,1526.5629
"CCOc1cnc(-c2nccs2)nc1Nc1n[nH]c2cc([C@@H]3C[C@@]34C(=O)Nc3ccc(OC)cc34)ccc12 [Example 44, (1R,2S)-2-(3-{[5-ethoxy-2-(1,3-thiazol-2-yl)pyrimidin-4-yl]amino}-1H-indazol-6-yl)-5′-methoxyspiro[cyclopropane-1,3′-indol]-2′(1′H)-one]",22 nM,844.375
"CCOc1cnc(C#CC(C)(C)O)nc1Nc1n[nH]c2cc([C@@H]3C[C@@]34C(=O)Nc3ccc(OC)cc34)ccc12 [Example 45, (1R,2S)-2-(3-((5-ethoxy-2-(3-hydroxy-3-methylbut-1-yn-1-yl)pyrimidin-4-yl)amino)-1H-indazol-6-yl)-5′-methoxyspiro[cyclopropane-1,3′-indolin]-2′-one]",890 nM,8798.5611
"CCOc1cc(-c2cnccn2)ccc1Nc1n[nH]c2cc([C@@H]3C[C@@]34C(=O)Nc3ccc(OC)cc34)ccc12 [Example 7, (1R,2S)-2-{3-[2-ethoxy-4-(pyrazin-2-yl)anilino]-1H-indazol-6-yl}-5′-methoxyspiro[cyclopropane-1,3′-indol]-2′(1′H)-one]",166 nM,702.6392
"COc1ccc2c(c1)[C@]1(C[C@H]1c1ccc3c(Nc4ccc(C(C)=O)cc4OC)n[nH]c3c1)C(=O)N2 [Example 3, (1R,2S)-2-[3-(4-acetyl-2-methoxyanilino)-1H-indazol-6-yl]-5′-methoxyspiro[cyclopropane-1,3′-indol]-2′(1′H)-one]",308 nM,256.2681
"CCOc1cc(S(C)(=O)=O)ccc1Nc1n[nH]c2cc([C@@H]3C[C@@]34C(=O)N(C)c3ccc(OC)cc34)ccc12 [Example 23, (1R,2S)-2-{3-[2-ethoxy-4-(methanesulfonyl)anilino]-1H-indazol-6-yl}-5′-methoxy-1′-methylspiro[cyclopropane-1,3′-indol]-2′(1′H)-one]",111 nM,1017
"COc1ccc2c(c1)[C@]1(C[C@H]1c1ccc3c(Nc4cc5c(cc4OC)S(=O)(=O)C=C5)n[nH]c3c1)C(=O)N2 [Example 6, 6-methoxy-5-({6-[(1R,2S)-5′-methoxy-2′-oxo-1′,2′-dihydrospiro[cyclopropane-1,3′-indol]-2-yl]-1H-indazol-3-yl}amino)-1H-1-benzothiophene-1,1-dione]",39.4 nM,427.6412
"COc1ccc2c(c1)[C@]1(C[C@H]1c1ccc3c(Nc4nc(-c5ncco5)cnc4OC)n[nH]c3c1)C(=O)N2 [Example 19, (1R,2S)-5′-methoxy-2-(3-{[3-methoxy-6-(1,3-oxazol-2-yl)pyrazin-2-yl]amino}-1H-indazol-6-yl)spiro[cyclopropane-1,3′-indol]-2′(1′H)-one]",170 nM,460
"COc1ccc2c(c1)[C@]1(C[C@H]1c1ccc3c(Nc4cc(-c5cscn5)ccc4OC)n[nH]c3c1)C(=O)N2 [Example 15, (1R,2S)-5′-methoxy-2-{3-[2-methoxy-5-(1,3-thiazol-4-yl)anilino]-1H-indazol-6-yl}spiro[cyclopropane-1,3′-indol]-2′(1′H)-one]",93.8 nM,511.8461
"CCOc1cc(-n2cncn2)ccc1Nc1n[nH]c2cc([C@@H]3C[C@@]34C(=O)Nc3ccc(OC)cc34)ccc12 [Example 10, (1R,2S)-2-{3-[2-ethoxy-4-(1H-1,2,4-triazol-1-yl)anilino]-1H-indazol-6-yl}-5′-methoxyspiro[cyclopropane-1,3′-indol]-2′(1′H)-one]",120 nM,396.7684
"COc1ccc2c(c1)[C@]1(C[C@H]1c1ccc3c(Nc4cc(-c5cocn5)cnc4OC)n[nH]c3c1)C(=O)N2 [Example 42, (1R,2S)-5′-methoxy-2-(3-{[2-methoxy-5-(1,3-oxazol-4-yl)pyridin-3-yl]amino}-1H-indazol-6-yl)spiro[cyclopropane-1,3′-indol]-2′(1′H)-one]",281 nM,465.6990
"CCOc1cnc(-c2nccs2)cc1Nc1n[nH]c2cc([C@@H]3C[C@@]34C(=O)Nc3ccc(OC)cc34)ccc12 [Example 34, (1R,2S)-2-(3-{[5-ethoxy-2-(1,3-thiazol-2-yl)pyridin-4-yl]amino}-1H-indazol-6-yl)-5′-methoxyspiro[cyclopropane-1,3′-indol]-2′(1′H)-one]",139 nM,46598.3224
"COc1ccc2c(c1)[C@]1(C[C@H]1c1ccc3c(Nc4cc(-c5ncco5)ccc4OC)n[nH]c3c1)C(=O)N2 [Example 13, (1R,2S)-5′-methoxy-2-{3-[2-methoxy-5-(1,3-oxazol-2-yl)anilino]-1H-indazol-6-yl}spiro[cyclopropane-1,3′-indol]-2′(1′H)-one]",348 nM,1120.7692
"CCOc1cc(-c2cn(C)cn2)ccc1Nc1n[nH]c2cc([C@@H]3C[C@@]34C(=O)Nc3ccc(OC)cc34)ccc12 [Example 29, (1R,2S)-2-{3-[2-ethoxy-4-(1-methyl-1H-imidazol-4-yl)anilino]-1H-indazol-6-yl}-5′-methoxyspiro[cyclopropane-1,3′-indol]-2′(1′H)-one]",466 nM,211.2020
"COc1ccc2c(c1)[C@]1(C[C@H]1c1ccc3c(Nc4cc(-c5ccsn5)ccc4OC)n[nH]c3c1)C(=O)N2 [Example 30, (1R,2S)-5′-methoxy-2-{3-[2-methoxy-5-(1,2-thiazol-3-yl)anilino]-1H-indazol-6-yl}spiro[cyclopropane-1,3′-indol]-2′(1′H)-one]",97.4 nM,1970.3298
"CCOc1cc2c(ccc[n+]2[O-])cc1Nc1n[nH]c2cc([C@@H]3C[C@@]34C(=O)Nc3ccc(OC)cc34)ccc12 [Example 12, 7-ethoxy-6-((6-((1R,2S)-5′-methoxy-2′-oxospiro[cyclopropane-1,3′-indolin]-2-yl)-1H-indazol-3-yl)amino)quinoline 1-oxide]",1100 nM,810
"CCOc1cc2ccccc2nc1Nc1n[nH]c2cc([C@@H]3C[C@@]34C(=O)Nc3ccc(OC)cc34)ccc12 [Example 8, (1R,2S)-2-{3-[(3-ethoxyquinolin-2-yl)amino]-1H-indazol-6-yl}-5′-methoxyspiro[cyclopropane-1,3′-indol]-2′(1′H)-one]",490 nM,1829.1347
"CCOc1ccc(-c2nccs2)cc1Nc1n[nH]c2cc([C@@H]3C[C@@]34C(=O)Nc3ccc(OC)cc34)ccc12 [Example 33, (1R,2S)-2-{3-[2-ethoxy-5-(1,3-thiazol-2-yl)anilino]-1H-indazol-6-yl}-5′-methoxyspiro[cyclopropane-1,3′-indol]-2′(1′H)-one]",41.4 nM,45644.0903
"COc1ccc2c(c1)[C@]1(C[C@H]1c1ccc3c(Nc4nc(-c5ncco5)ccc4OC)n[nH]c3c1)C(=O)N2 [Example 4, (1R,2S)-5′-methoxy-2-(3-{[3-methoxy-6-(1,3-oxazol-2-yl)pyridin-2-yl]amino}-1H-indazol-6-yl)spiro[cyclopropane-1,3′-indol]-2′(1′H)-one]",53.1 nM,549.2668
"CCOc1cc(-n2cncn2)cnc1Nc1n[nH]c2cc([C@@H]3C[C@@]34C(=O)Nc3ccc(OC)cc34)ccc12 [Example 38, (1R,2S)-2-(3-{[3-ethoxy-5-(1H-1,2,4-triazol-1-yl)pyridin-2-yl]amino}-1H-indazol-6-yl)-5′-methoxyspiro[cyclopropane-1,3′-indol]-2′(1′H)-one]",266 nM,559.1
